≈ marks a conversion by molar mass, not a printed value.
Tests used:
Bacillus subtilis = assay: Antibacterial against Bacillus subtilis ATCC 530 after 24 hrs by two-fold serial dilution method; format: functional; details: ATCC 530, 24 h
[1] = Inhibition of Staphylococcus aureus FabI assessed as oxidation of NADH to NAD+ by spectrophotometrically
Pseudomonas aeruginosa = assay: Antibacterial against Pseudomonas aeruginosa ATCC 27853 after 24 hrs by two-fold serial dilution method; format: functional; details: ATCC 27853, 24 h
Escherichia coli = assay: Antibacterial against Escherichia coli ATCC 25922 after 24 hrs by two-fold serial dilution method; format: functional; details: ATCC 25922, 24 h
Staphylococcus aureus = assay: Antibacterial against Staphylococcus aureus ATCC 25923 after 24 hrs by two-fold serial dilution method; format: functional; details: ATCC 25923, 24 h
[2] = Cytotoxicity against human macrophages assessed as cell viability after 24 hrs by MTT assay; format: functional, cell-based; details: Macrophage
[3] = Toxicity in human erythrocyte assessed as hemolysis by measuring hemoglobin release after 3 hrs; format: cell-based

MIC (Bacillus subtilis) | IC50 [1] | MIC (Pseudomonas aeruginosa) | MIC (Escherichia coli) | MIC (Staphylococcus aureus) | Structure (SMILES) | IC50 [2] | LC30 [3]
> 50 µg/mL | 45.5 µM | > 50 µg/mL | 33.6 µg/mL (≈ 92.3 µM) | 41.5 µg/mL (≈ 114 µM) | O=C(COc1cc(=O)oc2ccccc12)N1CCN(c2ccccc2)CC1 |  | 
1.86 µg/mL (≈ 4.29 µM) | 19.8 µM | 48.1 µg/mL (≈ 111 µM) | > 50 µg/mL | > 50 µg/mL | O=C(COc1cc(=O)oc2ccccc12)N1CCN(c2ccc(Cl)c(Cl)c2)CC1 |  | 
31.3 µg/mL (≈ 81.9 µM) | 43.2 µM | > 50 µg/mL | > 50 µg/mL | > 50 µg/mL | O=C(COc1cc(=O)oc2ccccc12)N1CCN(c2ccccc2F)CC1 |  | 
34.8 µg/mL (≈ 91 µM) | 37.6 µM | > 50 µg/mL | > 50 µg/mL | 29.1 µg/mL (≈ 76.1 µM) | O=C(COc1cc(=O)oc2ccccc12)N1CCN(c2ccc(F)cc2)CC1 |  | 
0.612 µg/mL (≈ 1.49 µM) | 2.73 µM | 17.1 µg/mL (≈ 41.6 µM) | > 50 µg/mL | 1.83 µg/mL (≈ 4.46 µM) | COc1cccc(N2CCN(CC(O)COc3cc(=O)oc4ccccc34)CC2)c1 (stereo not drawn) | 178 µM | > 10 µg/mL
37.9 µg/mL (≈ 99.7 µM) | 47.8 µM | > 50 µg/mL | > 50 µg/mL | > 50 µg/mL | O=c1cc(OCC(O)CN2CCN(c3ccccc3)CC2)c2ccccc2o1 (stereo not drawn) |  | 
> 50 µg/mL | 41.3 µM | > 50 µg/mL | > 50 µg/mL | 23 µg/mL (≈ 58.4 µM) | O=c1cc(OCC(O)CN2CCN(Cc3ccccc3)CC2)c2ccccc2o1 (stereo not drawn) |  | 
2.86 µg/mL (≈ 6.99 µM) | 6.23 µM | > 50 µg/mL | > 50 µg/mL | 1.44 µg/mL (≈ 3.53 µM) | Cc1ccc(N2CCN(CC(O)COc3cc(=O)oc4ccccc34)CC2)c(C)c1 (stereo not drawn) | 127 µM | > 10 µg/mL
3.65 µg/mL (≈ 8.58 µM) | 3.82 µM | 33 µg/mL (≈ 77.6 µM) | > 50 µg/mL | 2.4 µg/mL (≈ 5.63 µM) | O=c1cc(OCC(O)CN2CCN(c3ccc([N+](=O)[O-])cc3)CC2)c2ccccc2o1 (stereo not drawn) | 153 µM | > 10 µg/mL
3.88 µg/mL (≈ 9.46 µM) | 5.54 µM | 49.8 µg/mL (≈ 121 µM) | > 50 µg/mL | 2.52 µg/mL (≈ 6.15 µM) | COc1ccccc1N1CCN(CC(O)COc2cc(=O)oc3ccccc23)CC1 (stereo not drawn) | 256 µM | > 10 µg/mL
0.236 µg/mL (≈ 0.575 µM) | 0.57 µM | > 50 µg/mL | > 50 µg/mL | 0.355 µg/mL (≈ 0.865 µM) | COc1ccc(N2CCN(CC(O)COc3cc(=O)oc4ccccc34)CC2)cc1 (stereo not drawn) | 198 µM | > 10 µg/mL
18.2 µg/mL (≈ 40.4 µM) | 12.5 µM | > 50 µg/mL | > 50 µg/mL | 26 µg/mL (≈ 57.8 µM) | O=c1cc(OCC(O)CN2CCN(c3cccc(Cl)c3Cl)CC2)c2ccccc2o1 (stereo not drawn) |  | 
0.339 µg/mL (≈ 0.754 µM) | 22.3 µM | > 50 µg/mL | > 50 µg/mL | > 50 µg/mL | O=c1cc(OCC(O)CN2CCN(c3ccc(Cl)c(Cl)c3)CC2)c2ccccc2o1 (stereo not drawn) |  | 
13.9 µg/mL (≈ 33.6 µM) | 17.7 µM | > 50 µg/mL | > 50 µg/mL | 11.6 µg/mL (≈ 28.1 µM) | O=c1cc(OCC(O)CN2CCN(c3ccccc3Cl)CC2)c2ccccc2o1 (stereo not drawn) |  | 
26 µg/mL (≈ 62.6 µM) | 31.4 µM | > 50 µg/mL | 40.6 µg/mL (≈ 97.8 µM) | > 50 µg/mL | O=c1cc(OCC(O)CN2CCN(c3cccc(Cl)c3)CC2)c2ccccc2o1 (stereo not drawn) |  | 
> 50 µg/mL | 71.1 µM | > 50 µg/mL | > 50 µg/mL | > 50 µg/mL | O=c1cc(OCC(O)CN2CCN(c3ccccc3F)CC2)c2ccccc2o1 (stereo not drawn) |  | 
> 50 µg/mL | 62.9 µM | > 50 µg/mL | 40.4 µg/mL (≈ 101 µM) | > 50 µg/mL | O=c1cc(OCC(O)CN2CCN(c3ccc(F)cc3)CC2)c2ccccc2o1 (stereo not drawn) |  | 
1.08 µg/mL (≈ 2.4 µM) | 0.97 µM | > 50 µg/mL | > 50 µg/mL | 0.957 µg/mL (≈ 2.13 µM) | O=c1cc(OCC(O)CN2CCN(c3cccc(C(F)(F)F)c3)CC2)c2ccccc2o1 (stereo not drawn) | 172 µM | > 10 µg/mL
15.8 µg/mL (≈ 39.5 µM) | 35.5 µM | > 50 µg/mL | > 50 µg/mL | > 50 µg/mL | O=C(COc1cc(=O)oc2ccccc12)N1CCN(c2ccc(Cl)cc2)CC1 |  | 
34.4 µg/mL (≈ 87.7 µM) | 42.5 µM | > 50 µg/mL | > 50 µg/mL | 46.4 µg/mL (≈ 118 µM) | Cc1ccc(N2CCN(C(=O)COc3cc(=O)oc4ccccc34)CC2)c(C)c1 |  | 
1.94 µg/mL (≈ 4.73 µM) | 11.4 µM | > 50 µg/mL | > 50 µg/mL | > 50 µg/mL | O=C(COc1cc(=O)oc2ccccc12)N1CCN(c2ccc([N+](=O)[O-])cc2)CC1 |  | 
11 µg/mL (≈ 27.8 µM) | 7.15 µM | > 50 µg/mL | > 50 µg/mL | 8.19 µg/mL (≈ 20.8 µM) | COc1ccccc1N1CCN(C(=O)COc2cc(=O)oc3ccccc23)CC1 | 164 µM | > 10 µg/mL
6.96 µg/mL (≈ 17.6 µM) | 4.62 µM | > 50 µg/mL | > 50 µg/mL | 0.837 µg/mL (≈ 2.12 µM) | COc1cccc(N2CCN(C(=O)COc3cc(=O)oc4ccccc34)CC2)c1 | 141 µM | > 10 µg/mL
0.861 µg/mL (≈ 2.18 µM) | 0.83 µM | > 50 µg/mL | > 50 µg/mL | 0.327 µg/mL (≈ 0.829 µM) | COc1ccc(N2CCN(C(=O)COc3cc(=O)oc4ccccc34)CC2)cc1 | 192 µM | > 10 µg/mL
4.51 µg/mL (≈ 10.4 µM) | 8.41 µM | > 50 µg/mL | > 50 µg/mL | 23.2 µg/mL (≈ 53.6 µM) | O=C(COc1cc(=O)oc2ccccc12)N1CCN(c2cccc(Cl)c2Cl)CC1 | 223 µM | > 10 µg/mL
7.18 µg/mL (≈ 18 µM) | 21.9 µM | > 50 µg/mL | > 50 µg/mL | 28.5 µg/mL (≈ 71.4 µM) | O=C(COc1cc(=O)oc2ccccc12)N1CCN(c2ccccc2Cl)CC1 |  | 
2.94 µg/mL (≈ 7.37 µM) | 26.6 µM | 46 µg/mL (≈ 115 µM) | > 50 µg/mL | > 50 µg/mL | O=C(COc1cc(=O)oc2ccccc12)N1CCN(c2cccc(Cl)c2)CC1 |  | 
0.916 µg/mL (≈ 2.12 µM) | 1.82 µM | > 50 µg/mL | > 50 µg/mL | 1.08 µg/mL (≈ 2.5 µM) | O=C(COc1cc(=O)oc2ccccc12)N1CCN(c2cccc(C(F)(F)F)c2)CC1 | 188 µM | > 10 µg/mL
0.752 µg/mL (≈ 2.25 µM) |  | 22 µg/mL (≈ 65.7 µM) | 22.4 µg/mL (≈ 66.9 µM) | 1.69 µg/mL (≈ 5.04 µM) | CC1(C)S[C@@H]2[C@H](NC(=O)Cc3ccccc3)C(=O)N2[C@H]1C(=O)O [PENICILLIN G] | 186 µM | > 10 µg/mL
